Values of other authors, collected in paper PMC8348686, “The Pharmacological Profile of Second Generation Pyrovalerone Cathinones and Related Cathinone Derivative” (International Journal of Molecular Sciences, 2021).

Assays:
adrenergic α2A receptor = molecular target: T1, adrenergic α2A receptor (Homo sapiens, UniProt P08913); details: read-out: α2A Receptor Binding Ki ± SD; [3H]-Rauwolscine; ref Simmler et al. (2013); cited from earlier work
T1 sequence (P08913 1-465): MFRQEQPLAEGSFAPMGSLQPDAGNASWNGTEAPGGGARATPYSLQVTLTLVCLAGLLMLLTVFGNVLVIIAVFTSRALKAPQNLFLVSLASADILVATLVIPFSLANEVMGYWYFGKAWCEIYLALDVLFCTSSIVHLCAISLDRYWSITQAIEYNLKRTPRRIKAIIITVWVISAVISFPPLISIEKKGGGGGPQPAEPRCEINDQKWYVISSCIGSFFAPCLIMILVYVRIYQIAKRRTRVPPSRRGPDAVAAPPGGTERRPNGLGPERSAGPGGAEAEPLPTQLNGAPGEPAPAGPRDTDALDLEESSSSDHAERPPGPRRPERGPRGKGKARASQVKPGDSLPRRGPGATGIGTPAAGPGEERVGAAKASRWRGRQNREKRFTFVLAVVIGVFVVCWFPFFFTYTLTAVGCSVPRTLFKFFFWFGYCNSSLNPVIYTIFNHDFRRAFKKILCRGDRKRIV

h5-HT2B receptor = molecular target: T2, h5-HT2B receptor (Homo sapiens, UniProt P41595); design: method as in Rickli et al. (2015); details: read-out: h5-HT2B Activation Potency EC50 ± SD; ref Rickli et al. (2015); cited from earlier work
T2 construct: expressed in transfected cells; host or cells: HEK293

Human TAAR1 = system: Human TAAR1; design: method as in Simmler et al. (2016); details: ref Simmler et al. (2016); read-out: Human TAAR1 Activation Potency EC50 ± SD; cited from earlier work
Rat TAAR1 = details: [3H]-RO5166017; ref Simmler et al. (2013); read-out: Rat TAAR1 Receptor Binding Ki ± SD; cited from earlier work
dopaminergic D2 receptor = dopaminergic D2 receptor (Homo sapiens, UniProt P14416); details: read-out: D2 Receptor Binding Ki ± SD; [3H]-Spiperone; ref Simmler et al. (2013); cited from earlier work
h5-HT2C receptor = molecular target: T3, h5-HT2C receptor (Homo sapiens, UniProt P28335); details: read-out: h5-HT2C Receptor Binding Ki ± SD; [3H]-Mesulgerine; ref Simmler et al. (2013); cited from earlier work
T3 construct: expressed in transfected cells; host or cells: HEK293 cell preparations
T3 sequence (P28335 33-458): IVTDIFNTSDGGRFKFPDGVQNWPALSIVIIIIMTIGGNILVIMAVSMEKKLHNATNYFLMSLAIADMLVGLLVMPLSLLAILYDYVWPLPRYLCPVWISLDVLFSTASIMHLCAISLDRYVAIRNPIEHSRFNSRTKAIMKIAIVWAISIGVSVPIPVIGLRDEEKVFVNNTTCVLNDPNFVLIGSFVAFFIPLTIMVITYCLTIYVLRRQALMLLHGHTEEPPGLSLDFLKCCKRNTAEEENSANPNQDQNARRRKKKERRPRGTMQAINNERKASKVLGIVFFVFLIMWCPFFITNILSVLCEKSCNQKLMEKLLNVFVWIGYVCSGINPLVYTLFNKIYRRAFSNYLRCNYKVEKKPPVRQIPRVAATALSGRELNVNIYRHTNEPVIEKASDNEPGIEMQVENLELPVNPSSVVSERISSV

h5-HT2A receptor = h5-HT2A receptor (Homo sapiens, UniProt P28223); design: expressed in transfected cells; host or cells: HEK293 cell preparations; details: read-out: h5-HT2A Receptor Binding Ki ± SD; [3H]-Ketanserin; ref Simmler et al. (2013); cited from earlier work
Mouse TAAR1 = details: [3H]-RO5166017; ref Simmler et al. (2013); read-out: Mouse TAAR1 Receptor Binding Ki ± SD; cited from earlier work
adrenergic α1A receptor = molecular target: T4, adrenergic α1A receptor (Homo sapiens, UniProt P35348); details: read-out: α1A Receptor Binding Ki ± SD; [3H]-Prazosin; ref Simmler et al. (2013); cited from earlier work
T4 sequence (P35348 1-466): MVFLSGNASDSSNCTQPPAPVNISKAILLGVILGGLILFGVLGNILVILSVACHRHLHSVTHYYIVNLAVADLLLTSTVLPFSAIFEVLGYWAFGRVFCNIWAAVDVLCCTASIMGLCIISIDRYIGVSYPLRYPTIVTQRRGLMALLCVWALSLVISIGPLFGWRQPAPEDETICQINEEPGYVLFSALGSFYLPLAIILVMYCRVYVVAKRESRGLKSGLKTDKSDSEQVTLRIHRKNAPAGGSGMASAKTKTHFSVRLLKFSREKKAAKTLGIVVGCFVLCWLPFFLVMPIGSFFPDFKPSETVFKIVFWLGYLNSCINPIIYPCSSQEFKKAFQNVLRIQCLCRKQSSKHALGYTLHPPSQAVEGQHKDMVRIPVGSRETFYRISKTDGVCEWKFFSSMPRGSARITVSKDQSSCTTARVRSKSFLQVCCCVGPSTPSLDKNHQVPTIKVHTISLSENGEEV

h5-HT2A receptor, sequence (P28223 whole entry): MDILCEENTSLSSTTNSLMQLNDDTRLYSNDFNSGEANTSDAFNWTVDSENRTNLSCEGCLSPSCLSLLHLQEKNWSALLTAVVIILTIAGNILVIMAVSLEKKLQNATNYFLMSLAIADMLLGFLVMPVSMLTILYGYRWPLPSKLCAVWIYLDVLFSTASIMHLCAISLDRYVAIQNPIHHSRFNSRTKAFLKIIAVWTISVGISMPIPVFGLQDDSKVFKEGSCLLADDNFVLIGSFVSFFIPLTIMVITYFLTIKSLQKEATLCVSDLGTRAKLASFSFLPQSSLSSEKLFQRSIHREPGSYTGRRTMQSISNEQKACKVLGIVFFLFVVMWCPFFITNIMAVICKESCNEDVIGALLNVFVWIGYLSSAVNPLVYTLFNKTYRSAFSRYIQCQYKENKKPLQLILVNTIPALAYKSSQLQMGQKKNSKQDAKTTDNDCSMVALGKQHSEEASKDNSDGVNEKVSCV
dopaminergic D2 receptor, sequence (P14416 whole entry): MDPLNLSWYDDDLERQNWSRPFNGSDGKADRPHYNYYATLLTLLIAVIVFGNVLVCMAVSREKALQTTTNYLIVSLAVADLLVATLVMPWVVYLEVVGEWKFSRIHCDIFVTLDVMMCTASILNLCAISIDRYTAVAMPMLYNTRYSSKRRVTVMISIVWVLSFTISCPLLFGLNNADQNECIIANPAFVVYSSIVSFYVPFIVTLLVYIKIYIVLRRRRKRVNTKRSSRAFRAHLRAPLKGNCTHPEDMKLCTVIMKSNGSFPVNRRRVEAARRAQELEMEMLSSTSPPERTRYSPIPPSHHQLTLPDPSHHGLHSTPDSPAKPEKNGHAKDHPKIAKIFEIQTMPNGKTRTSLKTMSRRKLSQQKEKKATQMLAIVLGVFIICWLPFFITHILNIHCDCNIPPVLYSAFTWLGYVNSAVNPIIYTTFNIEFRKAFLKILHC
T2 sequence (P41595 whole entry): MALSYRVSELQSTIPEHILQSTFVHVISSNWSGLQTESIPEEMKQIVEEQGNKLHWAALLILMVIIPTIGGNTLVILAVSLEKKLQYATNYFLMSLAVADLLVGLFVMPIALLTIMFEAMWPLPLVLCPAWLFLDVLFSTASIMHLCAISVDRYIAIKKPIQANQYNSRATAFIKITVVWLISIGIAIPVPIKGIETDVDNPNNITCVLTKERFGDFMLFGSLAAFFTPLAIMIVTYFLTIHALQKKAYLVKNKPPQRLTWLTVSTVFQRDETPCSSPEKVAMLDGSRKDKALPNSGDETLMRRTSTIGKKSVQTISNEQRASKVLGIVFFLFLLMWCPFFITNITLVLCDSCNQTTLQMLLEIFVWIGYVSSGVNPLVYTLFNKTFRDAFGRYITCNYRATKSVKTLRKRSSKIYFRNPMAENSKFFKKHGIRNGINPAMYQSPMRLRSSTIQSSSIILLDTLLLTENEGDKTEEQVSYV

In the case of CC(N)Cc1ccccc1 (stereo not drawn) [Amphetamine, amphetamine, reference compound], the Ki (adrenergic α2A receptor) is given as 2.8 ± 0.8 µM, the EC50 (h5-HT2B receptor) is given as 9.4 ± 1.6 µM and the EC50 (Human TAAR1) is given as 2.8 ± 0.8 µM. For the same molecule, the Ki (Rat TAAR1) was 0.23 ± 0.18 µM, the Ki (dopaminergic D2 receptor) was over 30 µM and the Ki (h5-HT2C receptor) was over 13 µM. The Ki (h5-HT2A receptor) was over 13 µM, the Ki (Mouse TAAR1) was 0.09 ± 0.06 µM and the Ki (adrenergic α1A receptor) was over 6 µM.
